Experimental data published in patent US20210214758A1, “METHODS AND TOOLS FOR DETERMINING CLONAL RELATEDNESS AND PREDICTING CLONAL TRAITS” (priority 2018, published 2021).

Tests used:
Klebsiella isolates [1] = conditions: known; cited from earlier work
Klebsiella isolates [2] = test: Antibiotic susceptibility of Klebsiella clinical isolates per 7-SNP clonotype (Lookup Table 1; disk diffusion); type: cell-based, Klebsiella spp.
Description: In further embodiments, the Lookup Table is Lookup Table 1. The information contained in Lookup Table 1 below was obtained from urine specimens from patients with Klebsiella infections from several clinics within different regions of the United States. CT=clonotypes determined using a 7-SNP combination: phoE54; rpoB130; infB279; mdh315; phoE336; phoE354; and mdh429.
Next, antibiotic resistance was determined for all 387 Klebsiella isolates in the discovery set. Antibiotic testing was carried out according to the standard disk diffusion method as described in the Clinical and Laboratory Standards Institute (M100 Performance Standards for Antimicrobial Susceptibility Testing, 27th Edition, 2017). […] Since almost all Klebsiella isolates are known to be resistant to AMP and sensitive to IMI, TET is not used for treatment of urinary tract infections, and ESBL production is partially reflected in resistance to CTR, these antibiotics were not included for further analysis.
To aid in clinical decision-making and to translate clonotype information to treatment selection, Lookup Table 1 was generated. […] The information contained in Lookup Table 1 was obtained from urine specimens from patients with Klebsiella infections from several clinics within different regions of the United States. Indications of allowance or non-recommendation were determined based on a 20% resistance threshold to the indicated antibiotic; i.e., the antibiotic is recommended when more than 80% of the tested isolates within the indicated clonotype were susceptible to the indicated antibiotic, and was cautioned against when less than 80% of the isolates were susceptible to the antibiotic.

SMILES: CC1(C)S[C@@H]2[C@H](NC(=O)[C@H](N)c3ccccc3)C(=O)N2[C@H]1C(=O)O [AMP, ampicillin]
- resistance or sensitivity of almost all Klebsiella isolates (Klebsiella isolates [1]): resistant
- susceptibility, % (Klebsiella isolates [2]; CT 000): 34%
- susceptibility, % (Klebsiella isolates [2]; CT 001): 0%
- susceptibility, % (Klebsiella isolates [2]; CT 010): 0%
- susceptibility, % (Klebsiella isolates [2]; CT 011): 0%
- susceptibility, % (Klebsiella isolates [2]; CT 031): 0%
- susceptibility, % (Klebsiella isolates [2]; CT 040): 25%
- susceptibility, % (Klebsiella isolates [2]; CT 050): 0%
- susceptibility, % (Klebsiella isolates [2]; CT 051): 0%
- susceptibility, % (Klebsiella isolates [2]; CT 071): 0%
- susceptibility, % (Klebsiella isolates [2]; CT 100): 0%
- susceptibility, % (Klebsiella isolates [2]; CT 110): 0%
- susceptibility, % (Klebsiella isolates [2]; CT 111): 0%
- susceptibility, % (Klebsiella isolates [2]; CT 130): 2%
- susceptibility, % (Klebsiella isolates [2]; CT 131): 0%
- susceptibility, % (Klebsiella isolates [2]; CT 141): 0%
- susceptibility, % (Klebsiella isolates [2]; CT 150): 0%
- susceptibility, % (Klebsiella isolates [2]; CT 151): 2%
- susceptibility, % (Klebsiella isolates [2]; CT 160): 0%
- susceptibility, % (Klebsiella isolates [2]; CT 170): 4%
- susceptibility, % (Klebsiella isolates [2]; CT 171): 0%
- susceptibility, % (Klebsiella isolates [2]; CT 200): 9%
- susceptibility, % (Klebsiella isolates [2]; CT 201): 6%
- susceptibility, % (Klebsiella isolates [2]; CT 210): 0%
- susceptibility, % (Klebsiella isolates [2]; CT 211): 2%
- susceptibility, % (Klebsiella isolates [2]; CT 230): 0%
- susceptibility, % (Klebsiella isolates [2]; CT 231): 0%
- susceptibility, % (Klebsiella isolates [2]; CT 240): 0%
- susceptibility, % (Klebsiella isolates [2]; CT 241): 0%
- susceptibility, % (Klebsiella isolates [2]; CT 250): 0%
- susceptibility, % (Klebsiella isolates [2]; CT 251): 0%
- susceptibility, % (Klebsiella isolates [2]; CT 271): 0%
- susceptibility, % (Klebsiella isolates [2]; CT 300): 0%
- susceptibility, % (Klebsiella isolates [2]; CT 301): 0%
- susceptibility, % (Klebsiella isolates [2]; CT 310): 0%
- susceptibility, % (Klebsiella isolates [2]; CT 311): 0%
- susceptibility, % (Klebsiella isolates [2]; CT 330): 0%
- susceptibility, % (Klebsiella isolates [2]; CT 331): 1%
- susceptibility, % (Klebsiella isolates [2]; CT 350): 0%
- susceptibility, % (Klebsiella isolates [2]; CT 351): 0%
- susceptibility, % (Klebsiella isolates [2]; CT 370): 0%
- susceptibility, % (Klebsiella isolates [2]; CT 371): 0%
- susceptibility, % (Klebsiella isolates [2]; CT 411): 0%
- susceptibility, % (Klebsiella isolates [2]; CT 450): 0%
- susceptibility, % (Klebsiella isolates [2]; CT 451): 0%
- susceptibility, % (Klebsiella isolates [2]; CT 510): 0%
- susceptibility, % (Klebsiella isolates [2]; CT 511): 0%
- susceptibility, % (Klebsiella isolates [2]; CT 530): 0%
- susceptibility, % (Klebsiella isolates [2]; CT 531): 0%
- susceptibility, % (Klebsiella isolates [2]; CT 550): 0%
- susceptibility, % (Klebsiella isolates [2]; CT 551): 0%
- susceptibility, % (Klebsiella isolates [2]; CT 570): 0%
- susceptibility, % (Klebsiella isolates [2]; CT 571): 0%
- susceptibility, % (Klebsiella isolates [2]; CT 611): 0%
- susceptibility, % (Klebsiella isolates [2]; CT 630): 0%
- susceptibility, % (Klebsiella isolates [2]; CT 650): 0%
- susceptibility, % (Klebsiella isolates [2]; CT 651): 4%
- susceptibility, % (Klebsiella isolates [2]; CT 670): 0%
- susceptibility, % (Klebsiella isolates [2]; CT 710): 0%
- susceptibility, % (Klebsiella isolates [2]; CT 730): 0%
- susceptibility, % (Klebsiella isolates [2]; CT 731): 0%
- susceptibility, % (Klebsiella isolates [2]; CT 750): 0%
- susceptibility, % (Klebsiella isolates [2]; CT 751): 17%
- susceptibility, % (Klebsiella isolates [2]; CT 771): 0%
- susceptibility, % (Klebsiella isolates [2]; CT Any Klebsiella spp.): 6%

SMILES: C[C@@H]1O[C@@H]1P(=O)(O)O [FOS, fosfomycin]
- susceptibility, % (Klebsiella isolates [2]; CT 000): 63%
- susceptibility, % (Klebsiella isolates [2]; CT 001): 0%
- susceptibility, % (Klebsiella isolates [2]; CT 010): 33%
- susceptibility, % (Klebsiella isolates [2]; CT 011): 9%
- susceptibility, % (Klebsiella isolates [2]; CT 031): 33%
- susceptibility, % (Klebsiella isolates [2]; CT 040): 25%
- susceptibility, % (Klebsiella isolates [2]; CT 050): 29%
- susceptibility, % (Klebsiella isolates [2]; CT 051): 41%
- susceptibility, % (Klebsiella isolates [2]; CT 071): 80%
- susceptibility, % (Klebsiella isolates [2]; CT 100): 71%
- susceptibility, % (Klebsiella isolates [2]; CT 110): 0%
- susceptibility, % (Klebsiella isolates [2]; CT 111): 30%
- susceptibility, % (Klebsiella isolates [2]; CT 130): 29%
- susceptibility, % (Klebsiella isolates [2]; CT 131): 36%
- susceptibility, % (Klebsiella isolates [2]; CT 141): 0%
- susceptibility, % (Klebsiella isolates [2]; CT 150): 42%
- susceptibility, % (Klebsiella isolates [2]; CT 151): 43%
- susceptibility, % (Klebsiella isolates [2]; CT 160): 0%
- susceptibility, % (Klebsiella isolates [2]; CT 170): 39%
- susceptibility, % (Klebsiella isolates [2]; CT 171): 22%
- susceptibility, % (Klebsiella isolates [2]; CT 200): 43%
- susceptibility, % (Klebsiella isolates [2]; CT 201): 26%
- susceptibility, % (Klebsiella isolates [2]; CT 210): 45%
- susceptibility, % (Klebsiella isolates [2]; CT 211): 43%
- susceptibility, % (Klebsiella isolates [2]; CT 230): 100%
- susceptibility, % (Klebsiella isolates [2]; CT 231): 100%
- susceptibility, % (Klebsiella isolates [2]; CT 240): 100%
- susceptibility, % (Klebsiella isolates [2]; CT 241): 0%
- susceptibility, % (Klebsiella isolates [2]; CT 250): 55%
- susceptibility, % (Klebsiella isolates [2]; CT 251): 40%
- susceptibility, % (Klebsiella isolates [2]; CT 271): 38%
- susceptibility, % (Klebsiella isolates [2]; CT 300): 0%
- susceptibility, % (Klebsiella isolates [2]; CT 301): 24%
- susceptibility, % (Klebsiella isolates [2]; CT 310): 33%
- susceptibility, % (Klebsiella isolates [2]; CT 311): 35%
- susceptibility, % (Klebsiella isolates [2]; CT 330): 40%
- susceptibility, % (Klebsiella isolates [2]; CT 331): 32%
- susceptibility, % (Klebsiella isolates [2]; CT 350): 44%
- susceptibility, % (Klebsiella isolates [2]; CT 351): 35%
- susceptibility, % (Klebsiella isolates [2]; CT 370): 25%
- susceptibility, % (Klebsiella isolates [2]; CT 371): 50%
- susceptibility, % (Klebsiella isolates [2]; CT 411): 50%
- susceptibility, % (Klebsiella isolates [2]; CT 450): 33%
- susceptibility, % (Klebsiella isolates [2]; CT 451): 33%
- susceptibility, % (Klebsiella isolates [2]; CT 510): 50%
- susceptibility, % (Klebsiella isolates [2]; CT 511): 100%
- susceptibility, % (Klebsiella isolates [2]; CT 530): 14%
- susceptibility, % (Klebsiella isolates [2]; CT 531): 33%
- susceptibility, % (Klebsiella isolates [2]; CT 550): 33%
- susceptibility, % (Klebsiella isolates [2]; CT 551): 36%
- susceptibility, % (Klebsiella isolates [2]; CT 570): 50%
- susceptibility, % (Klebsiella isolates [2]; CT 571): 25%
- susceptibility, % (Klebsiella isolates [2]; CT 611): 33%
- susceptibility, % (Klebsiella isolates [2]; CT 630): 0%
- susceptibility, % (Klebsiella isolates [2]; CT 650): 37%
- susceptibility, % (Klebsiella isolates [2]; CT 651): 24%
- susceptibility, % (Klebsiella isolates [2]; CT 670): 0%
- susceptibility, % (Klebsiella isolates [2]; CT 710): 33%
- susceptibility, % (Klebsiella isolates [2]; CT 730): 21%
- susceptibility, % (Klebsiella isolates [2]; CT 731): 43%
- susceptibility, % (Klebsiella isolates [2]; CT 750): 60%
- susceptibility, % (Klebsiella isolates [2]; CT 751): 17%
- susceptibility, % (Klebsiella isolates [2]; CT 771): 36%
- susceptibility, % (Klebsiella isolates [2]; CT Any Klebsiella spp.): 41%
